Here are results for 19 compounds from patent publication US11021470B2, “2-substituted quinazoline compounds comprising a substituted heterocyclic group and methods of use thereof” (Araxes Pharma LLC, priority 2015, dated 2021).

For this test, the target named is T1, KRAS G12C 1-169, his-tagged protein, GDP-loaded (Homo sapiens, UniProt P01116, G12C).
T1 construct: KRAS G12C 1-169, his-tagged protein, GDP-loaded
Put plainly: KRAS G12C covalent binding (% modification) by mass spectrometry, ten or three minute incubation. The note with it: covalent binding to KRAS G12C, % modification after a three minute incubation period. The method, boiled down:
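GDP-loaded protein in 20 mM Hepes, 150 mM NaCl, 1 mM MgCl2 was incubated with compound (final 100, 30 or 10 μM; 2% DMSO) at room temperature, then quenched with formic acid. Intact-protein LC-MS with charge-envelope deconvolution gave masses and intensities of modified and unmodified species.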
On to `C=CC(=O)N1C[C@H](C)N(c2nc(OCCn3ccnc3C#N)nc3c(F)c(-c4c(C)ccc5[nH]ncc45)c(Cl)cc23)C[C@H]1C` [Compound 279, 1-(2-((4-((2S,5R)-4-acryloyl-2,5-dimethylpiperazin-1-yl)-6-chloro-8-fluoro-7-(5-methyl-1H-indazol-4-yl)quinazolin-2-yl)oxy)ethyl)-1H-imidazole-2-carbonitrile], for which the Binding % result was “++ (++ indicates binding activity from 50 to 90%)”.

In the case of `C=CC(=O)N1C[C@H](C)N(c2nc(OCC(C)(C)O)nc3c(F)c(-c4c(O)cccc4F)c(Cl)cc23)C[C@H]1C` [Compound 281, 1-((2R,5S)-4-(6-chloro-8-fluoro-7-(2-fluoro-6-hydroxyphenyl)-2-(2-hydroxy-2-methylpropoxy)quinazolin-4-yl)-2,5-dimethylpiperazin-1-yl)prop-2-en-1-one], the Binding % entry is “++ (++ indicates binding activity from 50 to 90%)”.

On to `C=CC(=O)N1C[C@H](C)N(c2nc(OCCn3ccnc3CC)nc3c(F)c(-c4c(C)ccc5[nH]ncc45)c(Cl)cc23)C[C@H]1C` [Compound 283, 1-((2R,5S)-4-(6-chloro-2-(2-(2-ethyl-1H-imidazol-1-yl)ethoxy)-8-fluoro-7-(5-methyl-1H-indazol-4-yl)quinazolin-4-yl)-2,5-dimethylpiperazin-1-yl)prop-2-en-1-one], for which the Binding % entry is recorded as “+++ (+++ indicates binding activity greater than 90%)”.

As to `C=CC(=O)N1C[C@H](C)N(c2nc(N3CC(N(C)C)C3)nc3c(F)c(-c4c[nH]c5ccccc45)c(Cl)cc23)C[C@H]1C` [Compound 285, 1-((2R,5S)-4-(6-chloro-2-(3-(dimethylamino)azetidin-1-yl)-8-fluoro-7-(1H-indol-3-yl)quinazolin-4-yl)-2,5-dimethylpiperazin-1-yl)prop-2-en-1-one], the Binding % result is “+ (+ indicates binding activity greater than 0% and up to 50%)”.

With `C=CC(=O)N1C[C@H](C)N(c2nc(N3CC(N(C)C)C3)nc3c(F)c(-c4c(C)ccc5[nH]nc(I)c45)c(Cl)cc23)C[C@H]1C` [Compound 286, 1-((2R,5S)-4-(6-chloro-2-(3-(dimethylamino)azetidin-1-yl)-8-fluoro-7-(3-iodo-5-methyl-1H-indazol-4-yl)quinazolin-4-yl)-2,5-dimethylpiperazin-1-yl)prop-2-en-1-one], the Binding % result was “+++ (+++ indicates binding activity greater than 90%)”.

Turning to `C=CC(=O)N1C[C@H](C)N(c2nc(N3CC(N(C)C)C3)nc3c(F)c(-c4c(C)[nH]c5ccccc45)c(Cl)cc23)C[C@H]1C` [Compound 287, 1-((2R,5S)-4-(6-chloro-2-(3-(dimethylamino)azetidin-1-yl)-8-fluoro-7-(2-methyl-1H-indol-3-yl)quinazolin-4-yl)-2,5-dimethylpiperazin-1-yl)prop-2-en-1-one], the Binding % result was “+ (+ indicates binding activity greater than 0% and up to 50%)”.

On to `C=CC(=O)N1C[C@H](C)N(c2nc(N3CC(N(C)C)C3)nc3c(F)c(-c4c[nH]c5cccc(F)c45)c(Cl)cc23)C[C@H]1C` [Compound 290, 1-((2R,5S)-4-(6-chloro-2-(3-(dimethylamino)azetidin-1-yl)-8-fluoro-7-(4-fluoro-1H-indol-3-yl)quinazolin-4-yl)-2,5-dimethylpiperazin-1-yl)prop-2-en-1-one], for which the Binding % result was “+ (+ indicates binding activity greater than 0% and up to 50%)”.

`C=CC(=O)N1C[C@H](C)N(c2nc(N3CC(N(C)C)C3)nc3c(F)c(-c4c[nH]c5cccc(C)c45)c(Cl)cc23)C[C@H]1C` [Compound 291, 1-((2R,5S)-4-(6-chloro-2-(3-(dimethylamino)azetidin-1-yl)-8-fluoro-7-(4-methyl-1H-indol-3-yl)quinazolin-4-yl)-2,5-dimethylpiperazin-1-yl)prop-2-en-1-one]: the Binding % result was “+ (+ indicates binding activity greater than 0% and up to 50%)”.

`C=CC(=O)N1C[C@H](C)N(c2nc(N3CC(N(C)C)C3)nc3c(F)c(-c4c(C)ccc5[nH]nc(C#N)c45)c(Cl)cc23)C[C@H]1C` [Compound 292, 4-(4-((2S,5R)-4-acryloyl-2,5-dimethylpiperazin-1-yl)-6-chloro-2-(3-(dimethylamino)azetidin-1-yl)-8-fluoroquinazolin-7-yl)-5-methyl-1H-indazole-3-carbonitrile]: the Binding % result is “++ (++ indicates binding activity from 50 to 90%)”.

In the case of `C=CC(=O)N1C[C@H](C)N(c2nc(OCCc3nccn3C)nc3c(F)c(-c4c(C)ccc5[nH]ncc45)c(Cl)cc23)C[C@H]1C` [Compound 293, 1-((2R,5S)-4-(6-chloro-8-fluoro-2-(2-(1-methyl-1H-imidazol-2-yl)ethoxy)-7-(5-methyl-1H-indazol-4-yl)quinazolin-4-yl)-2,5-dimethylpiperazin-1-yl)prop-2-en-1-one], the Binding % result is “++ (++ indicates binding activity from 50 to 90%)”.

Turning to `C=CC(=O)N1C[C@H](C)N(c2nc(N3CC(N(C)C)C3)nc3c(F)c(-c4c[nH]c5c(F)cccc45)c(Cl)cc23)C[C@H]1C` [Compound 294, 1-((2R,5S)-4-(6-chloro-2-(3-(dimethylamino)azetidin-1-yl)-8-fluoro-7-(7-fluoro-1H-indol-3-yl)quinazolin-4-yl)-2,5-dimethylpiperazin-1-yl)prop-2-en-1-one], the Binding % result was “+ (+ indicates binding activity greater than 0% and up to 50%)”.

Consider `C=CC(=O)N1C[C@H](C)N(c2nc(N3CC(N(C)C)C3)nc3c(F)c(-c4n[nH]c5ccccc45)c(Cl)cc23)C[C@H]1C` [Compound 295, 1-((2R,5S)-4-(6-chloro-2-(3-(dimethylamino)azetidin-1-yl)-8-fluoro-7-(1H-indazol-3-yl)quinazolin-4-yl)-2,5-dimethylpiperazin-1-yl)prop-2-en-1-one], for which the Binding % entry was “+ (+ indicates binding activity greater than 0% and up to 50%)”.

`C=CC(=O)N1C[C@H](C)N(c2nc(N3CC(N(C)C)C3)nc3c(F)c(-c4c(C)ccc5[nH]nc(C(N)=O)c45)c(Cl)cc23)C[C@H]1C` [Compound 296, 4-(4-((2S,5R)-4-acryloyl-2,5-dimethylpiperazin-1-yl)-6-chloro-2-(3-(dimethylamino)azetidin-1-yl)-8-fluoroquinazolin-7-yl)-5-methyl-1H-indazole-3-carboxamide]: the Binding % result is “++ (++ indicates binding activity from 50 to 90%)”.

As to `C=CC(=O)N1C[C@H](C)N(c2nc(N3CC(N(C)C)C3)nc3c(F)c(-c4c(C)ccc5[nH]nc([N+](=O)[O-])c45)c(Cl)cc23)C[C@H]1C` [Compound 297, 1-((2R,5S)-4-(6-chloro-2-(3-(dimethylamino)azetidin-1-yl)-8-fluoro-7-(5-methyl-3-nitro-1H-indazol-4-yl)quinazolin-4-yl)-2,5-dimethylpiperazin-1-yl)prop-2-en-1-one], the Binding % result was “+ (+ indicates binding activity greater than 0% and up to 50%)”.

Turning to `C=CC(=O)N1C[C@H](C)N(c2nc(N3CC(N(C)C)C3)nc3c(F)c(-c4c(C)ccc5[nH]nc(N)c45)c(Cl)cc23)C[C@H]1C` [Compound 298, 1-((2R,5S)-4-(7-(3-amino-5-methyl-1H-indazol-4-yl)-6-chloro-2-(3-(dimethylamino)azetidin-1-yl)-8-fluoroquinazolin-4-yl)-2,5-dimethylpiperazin-1-yl)prop-2-en-1-one], the Binding % entry is listed as “++ (++ indicates binding activity from 50 to 90%)”.

Regarding `C=CC(=O)N1C[C@H](C)N(c2nc(N3CC(N(C)C)C3)nc3c(F)c(-c4c(C)ccc5[nH]nc(CO)c45)c(Cl)cc23)C[C@H]1C` [Compound 299, 1-((2R,5S)-4-(6-chloro-2-(3-(dimethylamino)azetidin-1-yl)-8-fluoro-7-(3-(hydroxymethyl)-5-methyl-1H-indazol-4-yl)quinazolin-4-yl)-2,5-dimethylpiperazin-1-yl)prop-2-en-1-one], the Binding % result is “++ (++ indicates binding activity from 50 to 90%)”.

For the compound `C=CC(=O)N1C[C@H](C)N(c2nc(N3CC(N(C)C)C3)nc3c(F)c(-c4c[nH]c5ncccc45)c(Cl)cc23)C[C@H]1C` [Compound 300, 1-((2R,5S)-4-(6-chloro-2-(3-(dimethylamino)azetidin-1-yl)-8-fluoro-7-(1H-pyrrolo[2,3-b]pyridin-3-yl)quinazolin-4-yl)-2.5-dimethylpiperazin-1-yl)prop-2-en-1-one], the Binding % entry was “+ (+ indicates binding activity greater than 0% and up to 50%)”.

Consider `C=CC(=O)N1C[C@H](C)N(c2nc(N3CC(N(C)CCCCCN=[N+]=[N-])C3)nc3c(F)c(-c4c(O)cccc4F)c(Cl)cc23)C[C@H]1C` [Compound 301, 1-((2R,5S)-4-(2-(3-((5-azidopentyl)(methyl)amino)azetidin-1-yl)-6-chloro-8-fluoro-7-(2-fluoro-6-hydroxyphenyl)quinazolin-4-yl)-2,5-dimethylpiperazin-1-yl)prop-2-en-1-one], for which the Binding % entry is “++ (++ indicates binding activity from 50 to 90%)”.

In the case of `C=CC(=O)N1C[C@H](C)N(c2nc(OCCc3cn(C(C)C)cn3)nc3c(F)c(-c4c(O)cccc4F)c(Cl)cc23)C[C@H]1C` [Compound 302, 1-((2R,5S)-4-(6-chloro-8-fluoro-7-(2-fluoro-6-hydroxyphenyl)-2-(2-(1-isopropyl-1H-imidazol-4-yl)ethoxy)quinazolin-4-yl)-2,5-dimethylpiperazin-1-yl)prop-2-en-1-one], the Binding % result was “+++ (+++ indicates binding activity greater than 90%)”.
